Key:
[1] = target: T1, Hp-FAR-2 (Heligmosomoides polygyrus, UniProt A0A183GLK6); assay: fluorescence titration, one-site fit; assay type: binding
T1 construct: mature protein, residues 18-180 of 180 (signal peptide removed), N-terminal 6-His tag, pET histev N'term, E. coli BL21(DE3), Ni-NTA and SEC; ~17-18 kDa on SDS-PAGE

[2] = target: T1, Hp-FAR-2; assay: fluorescence titration of retinol, one-site fit; assay type: binding

T1 sequence (A0A183GLK6 entry or part of it): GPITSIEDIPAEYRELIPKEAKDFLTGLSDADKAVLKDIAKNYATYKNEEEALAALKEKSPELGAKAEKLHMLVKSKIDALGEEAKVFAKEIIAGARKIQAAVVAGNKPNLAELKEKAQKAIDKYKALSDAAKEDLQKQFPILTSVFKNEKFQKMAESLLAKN

SMILES	Kd [1] [nM]	Kd [2] [µM]
CN(C)c1cccc2c(S(=O)(=O)NCCCCCCCCCCC(=O)O)cccc12 [DAUDA]	2650	–
CC1=C(/C=C/C(C)=C/C=C/C(C)=C/CO)C(C)(C)CCC1 [retinol]	–	6.55

From publication doi:10.1101/2025.06.05.657999, “A secreted fatty acid- and retinol- binding protein from Heligmosomoides polygyrus suppresses host macrophage polarization” (bioRxiv, 2025)
